# Experimental data as given in US20210301038A1, “POLYSIALIC ACID AND DERIVATIVES THEREOF, PHARMACEUTICAL COMPOSITION AND METHOD OF PRODUCING POLYSIALIC ACID” (Medizinische Hochschule Hannover (MHH), priority 2018, published 2021).
# Assays:
# [1] = test system: NMDAR-EPSCs (GluN1/GluN2B receptors); assay: Evoked NMDAR-EPSCs, whole-cell patch-clamp of layer V pyramidal neurons in sham- or endoNF-treated mPFC slices; type: cell-based, mouse; details: for inhibition of NMDAR-EPSC amplitude: sham-treated mPFC slices, DP12 1 μg/ml, then subsequently applied 0.3 μM Ro 25-6981
# Source text: Each mouse was quickly sacrificed by cervical dislocation. After decapitation, the brain was rapidly removed from the skull and placed in ice-cold artificial cerebrospinal fluid (aCSF) equilibrated with 95% O2/5% CO2, which was composed of the following (in mM): 250 sucrose, 24 NaHCO3, 25 glucose, 2.5 KCl, 1.25 NaH2PO4, 2 CaCl2, and 1.5 MgCl2 (osmolarity 345-350 mOsm/kg, pH 7.4). Using a VT1200S vibratome (Leica, Nussloch, Germany), coronal slices containing the prelimbic and infralimbic cortices (1.9-1.3 mm anterior to bregma) were cut 350 μm or 400 μm thick, for patch clamp and extracellular recordings, respectively, in the same sucrose-containing aCSF. Then, the slices were transferred to a slice holding chamber filled with recording aCSF (osmolarity 300-305 mOsm/kg, pH 7.4) that contained 120 mM NaCl instead of sucrose (Eckhardt et al., 2000) and was continuously gassed with 95% O2/5% CO2.
# For endoNF treatment in C57BL/6J mice, slices were first allowed to recover for 20 min at room temperature (22-24° C.) in recording aCSF and were then placed in a 24-well plate to be incubated in 2 ml of aCSF without (sham) or with addition of endoNF (10 μg/ml) at 35° C. for 2 hours. The 24-well plate was installed in a water bath (ED, Julabo, Seelbach, Germany). For field excitatory postsynaptic potential (fEPSP) recordings in knockout and transgenic mice, mPFC slices were incubated in recording aCSF for >2 hours at room temperature before recordings. For patch-clamp recordings in knockout mice, slices were incubated first at 35° C. for 20 min and then at room temperature for >30 min before recordings started. The aCSF was continuously gassed with 95% O2/5% CO2 during all incubation steps and recordings.
# For whole-cell patch-clamp recordings, layer V pyramidal neurons were visualized using a SliceScope Pro 6000 equipped with a 40× water-immersion objective and infrared differential interference contrast microscopy (Scientifica, Uckfield, UK). Pyramidal cells were identified by their triangular soma and long apical dendrites, and synaptically evoked excitatory postsynaptic currents (EPSCs) were recorded using patch pipettes (3-5 MQ) fabricated using borosilicate glass capillaries (wall thickness 0.315, length 100, outer diameter 1.5 mm, Hilgenberg) and a DMZ-Zeitz puller (Zeitz Instruments GmbH, Martinsried, Germany). The intracellular pipette solution contained the following (in mM): 140.7 Cs-methane-sulfonate, 5 NaCl, 1 MgCl2, 0.2 EGTA, 10 HEPES, 3 ATP-Mg, 0.3 Na-GTP, and 3.1 QX-314 (osmolarity 295 mOsm/kg, adjusted to pH 7.2 with CsOH). EPSCs were evoked by electrical pulses (0.2 ms) at 0.033 Hz via a glass pipette placed in layer II/III of the mPFC (identically to fEPSPs). Mixed EPSCs showing a fast AMPAR-mediated component and a slow NMDAR-mediated component were recorded at a −60 mV holding potential in whole-cell voltage-clamp mode in normal aCSF. The stimulation intensity was adjusted to evoke mixed EPSCs with amplitudes of approximately 300 pA. The slow NMDAR-mediated component of EPSCs was pharmacologically isolated at −60 mV in modified aCSF containing low Mg^2+ (0.1 mM) and high Ca^2+ (3.2 mM, for adjustment of divalent cation concentrations), the selective antagonist of α-amino-3-hydroxy-5-methyl-4-isoxazolepropionic acid (AMPA)/kainate receptors NBQX (10 μM), and the selective antagonist of γ-aminobutyric acid (GABA)B receptors CGP-55845 (2 μM) (Chen et al., 2003). The washout of Mg^2+ required at least 25 min. Recordings at a holding potential near the resting membrane potential allowed us to obtain stable NMDAR-EPSC recordings from pyramidal cells lasting for 1-1.5 hours. Series resistance (Rs, range 10-25 MΩ) was compensated (20-30%) and monitored continuously. Neurons in which Rs changed by more than 20% throughout the experiment were not included in the analysis. In voltage-clamp mode, membrane potential was not corrected for liquid junction potential. […]
# [2] = test system: dissociated hippocampal cultures (primary neural cells); assay: MTT assay of neural cell viability; type: cell-based, mouse; details: 30 to 1000 nM, 48 hours, from 10th day in vitro; DP10 effect at 30, 100 and 300 nM
# Experimental: Primary hippocampal cells were dissociated from embryonic mice on embryonic day 18. To prepare the primary neural cultures, pregnant C57/BL6J mice were sacrificed by cervical dislocation. Embryos were decapitated, and the hippocampi isolated from brains under sterile conditions and dissected. Enzymatic digestion by 0.25% trypsin/EDTA solution was followed by separation of the cells in serum-containing medium via trituration (10 passes, 1 ml pipette). The primary cells were seeded onto 96-well plates coated with 100 μg/ml poly-lysine and 20 μg/ml laminin. The plating density was 20,000 cells per well. First, 200 μl Dulbecco's modified Eagle's medium (DMEM) was applied per well (supplemented with 1% penicillin-streptomycin and 1% L-glutamine and 2% B27). After incubation for 2 h at 37° C./5% CO2, the medium was exchanged with the pre-warmed Neurobasal medium including 1% penicillin-streptomycin, 1% L-glutamine, and 2% B27. The cells—predominantly neurons and astrocytes—were incubated at 37° C. in 5% CO2 humidified atmosphere for 10 days before administration of reagents.
# The assay was performed as described elsewhere with minor modifications (Khalid et al., 2018). Primary neural cells (see above) grown in a 96-well plate were exposed to drugs/vehicles for 48 h at 37° C./5% CO2. After aspiration of culture media, a washing was done with 100 μl phosphate buffered saline (PBS, pH=7.2). Then, PBS was completely removed, and 100 μl phenol red-free pre-warmed Neurobasal media and 50 μl MTT solution (3-(4,5-dimethylthiazol-2-yl)-2,5-diphenyltetrazolium bromide, 5 mg/ml; dissolved in PBS) were added to each well and plates were incubated for 4 h in an incubator. […] DMSO destroyed the cells and released the formazan, which was detected by optical density value at 560 nm, measured using a plate reader. Optical density values for wells containing cells were corrected by subtracting values measured in cell-free wells prepared and treated in the same way as wells containing control cells.
Compound,"decrease of NMDAR-EPSC amplitude ([1]; endoNF-treated slices, 1 μg/ml) [%]","inhibition as % of the mean inhibition produced by Ro 25-6981 applied alone ([1]; endoNF-treated slices, same time window, estimated) [%]",inhibition of NMDAR-EPSC amplitude [1],effect on neural cell viability [2],"reduction of EPSC amplitude on subsequent application after DP1 ([1]; endoNF-treated slices, 0.3 μM) [%]","reduction of NMDAR-EPSC amplitude on subsequent application after DP12 ([1]; endoNF-treated slices, 0.3 μM Ro 25-6981 after DP12)"
(α(2→8)Neu5Ac)12 [DP12],~25,~90,no significant inhibition,No effects,,
"C[C@@H](CN1CCC(Cc2ccccc2)CC1)[C@@H](O)c1ccc(O)cc1.O=C(O)/C=C\C(=O)O [Ro 25-6981, (αR,βS)-α-(4-hydroxyphenyl)-β-methyl-4-(phenylmethyl)-1-piperidinepropanol maleate]",,,no significant inhibition,no effects,~20,marginally
